Measurements from patent US4492757A, “Process for preparing L-threonine” (Denki Kagaku Kogyo Kabushiki Kaisha, priority 1981, dated 1985).

Tests used:
D-threonine-aldolase = assay: Agents inhibiting, activating or stabilizing the activity of the novel enzyme; format: biochemical
L-allothreonine-aldolase = assay: Inhibitants, stabilizers and coenzyme of L-allothreonine-aldolase; format: biochemical

`[Pd+2]` [Pd^2+] was tested, and the “effect of the agent on the activity of the novel enzyme” value (“effect … of the novel enzyme” for short) (D-threonine-aldolase) was “inhibited”.
In the case of `[Mn+2]` [Mn^2+], the “effect … of the novel enzyme” value (D-threonine-aldolase) was “activated and stabilized”.
For `OCCS` [mercaptoethanol], the “effect of the agent on L-allothreonine-aldolase” value (L-allothreonine-aldolase) was “Stabilizers” and the “effect … of the novel enzyme” value (D-threonine-aldolase) was “activated and stabilized”.
`[Ag+]` [Ag^+] was tested, and the “effect of the agent on L-allothreonine-aldolase” value (L-allothreonine-aldolase) was “Inhibitants” and the “effect … of the novel enzyme” value (D-threonine-aldolase) was “inhibited”.
With `[Cu+2]` [Cu^2+] the “effect of the agent on L-allothreonine-aldolase” value (L-allothreonine-aldolase) was “Inhibitants” and the “effect … of the novel enzyme” value (D-threonine-aldolase) was “inhibited”.
With `O=C(O)c1cc[c]([Hg][Cl])cc1` [p-chloromercuribenzoate] the “effect … of the novel enzyme” value (D-threonine-aldolase) was “inhibited”.
With `[Zn+2]` [Zn^2+] the “effect … of the novel enzyme” value (D-threonine-aldolase) was “inhibited”.
`O=S([O-])[O-].[Na+].[Na+]` [sodium sulfite] was tested, and the “effect of the agent on L-allothreonine-aldolase” value (L-allothreonine-aldolase) was “Stabilizers” and the “effect … of the novel enzyme” value (D-threonine-aldolase) was “activated and stabilized”.
With `Cc1ncc(COP(=O)(O)O)c(C=O)c1O` [pyridoxal-5'-phosphate] the coenzyme (L-allothreonine-aldolase) was “Coenzyme”.
For `[Hg+2]` [Hg^2+], the “effect of the agent on L-allothreonine-aldolase” value (L-allothreonine-aldolase) was “Inhibitants” and the “effect … of the novel enzyme” value (D-threonine-aldolase) was “inhibited”.
`[Co+2]` [Co^2+] was tested, and the “effect … of the novel enzyme” value (D-threonine-aldolase) was “activated and stabilized”.
`[Mg+2]` [Mg^2+] was tested, and the “effect … of the novel enzyme” value (D-threonine-aldolase) was “activated and stabilized”.
In the case of `O[C@H](CS)[C@H](O)CS` (racemic) [dithiothreitol], the “effect of the agent on L-allothreonine-aldolase” value (L-allothreonine-aldolase) was “Stabilizers” and the “effect … of the novel enzyme” value (D-threonine-aldolase) was “activated and stabilized”.
With `O=S([O-])O.[Na+]` [sodium hydrogen sulfite] the “effect … of the novel enzyme” value (D-threonine-aldolase) was “activated and stabilized”.
In the case of `NO` [hydroxylamine], the “effect … of the novel enzyme” value (D-threonine-aldolase) was “inhibited”.
In the case of `[Fe+2]` [Fe^2+], the “effect … of the novel enzyme” value (D-threonine-aldolase) was “activated and stabilized”.
